Where two headings read alike, the source gives them in different places.
Tests used:
[1] = system: MDMA-like discriminative stimulus effects; design: method as in PMID 30986635; conditions: cited from earlier work
healthy volunteers = assay: Subjective effects, ARCI short form, clephedrone study; format: in vivo, humans; conditions: 100 or 150 mg oral, n=8
Text: The study evaluating the acute effects of clephedrone was designed as a non-controlled, prospective, observational, and naturalistic study. The procedures and evaluations included in this study have been described in previous studies evaluating other synthetic cathinones (mephedrone, methylone, alpha-PVP, NEP, HEXEN), phenethylamines (2C-B and 2C-E), or synthetic cannabinoids (JWH-122, JWH-210, UR-144).
This study consisted of one experimental session in which participants (N = 8; 6 women, 2 men) selected their oral dose of clephedrone based on their drug use experience and preferences. According to their dose selection, 3 women and 1 man ingested 100 mg of clephedrone, while the remaining 3 women and 1 man opted for a higher dose of 150 mg. […] Participants were recruited by word of mouth by the harm reduction organization Energy Control in Barcelona (Associació Benestar i Desenvolupament, ABD).
(§1) Subjective effects were evaluated with visual analog scales (VAS), the short form of the Addiction Research Center Inventory (ARCI), and the Evaluation of Subjective Effects of Substances with Abuse Potential questionnaire (VESSPA-SSE). In addition, the Sensitivity to Drug Reinforcement Questionnaire (SDRQ) and a pharmacological identification class questionnaire were used in the controlled study administering methylone.
The validated ARCI 49-item short form was used to evaluate and discriminate the subjective following five subscales that correspond to different classes of drugs of abuse: pentobarbital-chlorpromazine-alcohol group (PCAG) is susceptible to sedative effects, morphine-benzedrine group (MBG) is susceptible to euphoric effects, lysergic acid diethylamide (LSD) is susceptible to dysphoria and somatic symptoms, benzedrine (BG) is susceptible to intellectual efficiency and energy, and amphetamine (A) is susceptible to amphetamine-like effects.
(§2) Participants included in the naturalistic clephedrone study completed VAS at baseline, 0.50, 1, 1.5, 2, 3, 4, and 5 h, and ARCI and VESSPA at baseline, 1, 2, 3, 4, and 5 h after self-administering clephedrone. In the controlled study, VAS was performed at baseline and 0.25, 0.50, 0.75, 1, 1.5, 2, 3, 4, 6, 8, 10, and 24 h, and ARCI and VESSPA at baseline and 1, 2, 3, 4, 6, 8, and 10 h after administering methylone. Participants completed SDRQ and VAS sexual desire and arousal at baseline, 1 and 10 h, and the pharmacological class identification questionnaire at 8 h.
(§3) For statistical analysis, values of physiological (SBP, DBP, HR, and T) and subjective effects (VAS, ARCI, and VESSPA-SSE) were baseline–adjusted. Maximum effects (Emax) and the time needed to reach maximum effects (Tmax) were determined, and the area under the curve up to 5 h (AUC0–5h) for clephedrone and up to 6 h (AUC0–6h) for methylone was calculated using the trapezoidal rule. Emax and AUC values are presented as mean ± standard deviation, whereas Tmax is presented in median (range).
(§4) To find possible significant changes through the time course compared to baseline, a Dunnett multiple comparison test was carried out to compare each time point with baseline in both drug conditions. For clephedrone the comparisons were 0–0.5 h, 0–1 h, 0–1.5 h, 0–2 h, 0–3 h, 0–4 h and 0–5 h, and for methylone this analysis included 0–0.25 h, 0–0.5 h, 0–0.75 h, 0–1 h, 0–1.5 h, 0–2 h, 0–3 h, 0–4 h and 0–6 h. Given their different study designs, no comparative analysis between the time courses of both synthetic cathinones was conducted.

humans = conditions: cited from earlier work
[2] = system: healthy male participants; assay: Subjective effects, VESSPA-SSE, methylone trial; format: in vivo, humans; conditions: 150 or 200 mg oral
Experimental: Methylone pharmacology was evaluated in a study designed as a randomized, double-blind, placebo-controlled, crossover clinical trial. Four pilot studies were conducted administering methylone at oral doses of 50 (n = 3), 100 (n = 6), 150 (n = 5), and 200 mg (n = 7). Participants attended 3 experimental sessions separated by a one-week wash-out period and received two doses of methylone (one dose per experimental session) compared to placebo, except in the last pilot study in which participants received one dose of methylone, compared to MDMA and placebo. However, in this manuscript, only the results corresponding to the highest methylone doses (n = 12; 150 and 200 mg; mean dose = 179.2 mg) are presented, to enable comparison with clephedrone self-administration. Participants were recruited by word of mouth in the volunteer database of the clinical pharmacology unit.
Methylone hydrochloride of high purity in powder form was acquired from LGC Standards (Teddington, UK) for the controlled study. The Pharmacy Department of the Hospital Universitari Germans Trias i Pujol was responsible for manufacturing, storing, and dispensing identical and opaque soft gelatin capsules containing 50 mg of methylone or a placebo (maltodextrin). Treatment consisted of 5 capsules that combined methylone and/or a placebo to reach the target dose. Details can be found in the previous article.
as §1
The VESSPA-SSE questionnaire, used to evaluate the subjective effects of stimulant drugs, The questionnaire includes 36-items and consists of six subscales that measure sedation (S), psychosomatic anxiety (ANX), changes in perception (CP), pleasure and sociability (SOC), activity and energy (ACT), and psychotic symptoms (PS).
as §2, §3, §4

## CNC(C)C(=O)c1ccc(Cl)cc1 (centres unmarked) [Clephedrone, 4-chloromethcathinone]
[1]; rodents
  Substitution for MDMA in drug discrimination: fully substituted for MDMA
Healthy volunteers
  ARCI A (amphetamine-like effects) Emax: 5.88 ± 0.99 points
  ARCI BG (intellectual efficiency) Emax: 4.13 ± 0.99 points
  ARCI LSD (dysphoria) Emax: 1.25 ± 2.19 points
  ARCI MBG (euphoria) Emax: 12.13 ± 2.03 points
  ARCI PCAG (sedation) Emax: 0.88 ± 4.19 points
Healthy volunteers; AUC0–5h
  ARCI A (amphetamine-like effects) AUC0-5/6 h: 18.75 ± 3.54 points·h
  ARCI BG (intellectual efficiency) AUC0-5/6 h: 10.56 ± 5.30 points·h
  ARCI LSD (dysphoria) AUC0-5/6 h: 1.81 ± 4.39 points·h
  ARCI MBG (euphoria) AUC0-5/6 h: 37.56 ± 11.83 points·h
  ARCI PCAG (sedation) AUC0-5/6 h: –3.31 ± 5.44 points·h

## CNC(C)C(=O)c1ccc2c(c1)OCO2 (centres unmarked) [Methylone, 3,4-methylenedioxy-N-methylcathinone]
[1]; rats
  Substitution for MDMA in drug discrimination: > 80%
humans; naturalistic and controlled environments
  Persistence of heart rate increases: 8 to 10 h
humans; naturalistic conditions
  Time of peak effects following self-administration: 2 h
[2]
  Tmax of VESSPA subscales: 1 h
[2]; n=12
  VESSPA ANX (psychosomatic anxiety) Emax: 0.92 ± 0.51 points
  VESSPA CP (changes in perception) Emax: 0.00 ± 0.00 points
  VESSPA CP (changes in perception) Tmax: 0.0 (0.0–0.0) h
  VESSPA S (sedation) Emax: 0.56 ± 0.59 points
  VESSPA SOC (pleasure and sociability) Emax: 1.24 ± 1.56 points
  VESSPA-ACT (activity and energy) Emax: 0.82 ± 0.84 points
  VESSPA-PS (psychotic symptoms) Emax: 0.06 ± 0.11 points
[2]; n=12, listed as methylone
  VESSPA SOC (pleasure and sociability) Emax: higher than 1 points
[2]; AUC0–6h, n=12
  VESSPA ANX (psychosomatic anxiety) AUC0-5/6 h: 2.51 ± 2.22 points·h
  VESSPA CP (changes in perception) AUC0-5/6 h: 0.00 ± 0.00 points·h
  VESSPA S (sedation) AUC0-5/6 h: 1.39 ± 1.96 points·h
  VESSPA SOC (pleasure and sociability) AUC0-5/6 h: 1.63 ± 2.13 points·h
  VESSPA-ACT (activity and energy) AUC0-5/6 h: 1.02 ± 1.08 points·h
  VESSPA-PS (psychotic symptoms) AUC0-5/6 h: 0.10 ± 0.24 points·h
